Reference: patent publication US20250090530A1, “COMBINATIONS FOR THE TREATMENT OF CANCER” (Terns Pharmaceuticals, Inc., priority 2023, published 2025)

Columns and labels:
K562 [1] = experiment: Fixed molar combinations with active site TKIs, curve shift and isobologram analyses (CellTiter-Glo viability); type: cell-based
Ku812 [2] = experiment: as above; type: cell-based
BaF3-BCR-ABL-T315I = experiment: Expanded combination matrix, excess over Bliss; type: cell-based; conditions: 72 hours
BaF3BCR-ABL-T315I = experiment: Fixed molar combinations, curve shift and isobologram analyses; type: cell-based; conditions: 72 hours
K562 [3] = experiment: Expanded combination matrix, BLISS synergy (CellTiter-Glo viability); type: cell-based
Ku812 [4] = experiment: as above; type: cell-based
kinase panel = experiment: In vitro kinase panel (substrate phosphorylation assays); type: biochemical; conditions: at 1 μM

With `O=C(Nc1ccc(OC(F)(F)Cl)cc1)c1cnc(N2CC[C@@H](O)C2)c(-c2cc[nH]n2)c1` [Asciminib, asciminib] the “Summary of Observations (synergy by curve shift and isobologram analyses)” value (K562 [1]; combination partner Dasatinib) was “Synergy at IC90”, the “Summary of Observations (synergy by curve shift and isobologram analyses)” value (K562 [1]; combination partner Imatinib) was “Synergy at IC75 and IC90” and the “Summary of Observations (synergy by curve shift and isobologram analyses)” value (K562 [1]; combination partner Ponatinib) was “Synergy at IC75 and IC90”. The “Summary of Observations (synergy by curve shift and isobologram analyses)” value (Ku812 [2]; combination partner Dasatinib) was “Additivity”, the “Summary of Observations (synergy by curve shift and isobologram analyses)” value (Ku812 [2]; combination partner Imatinib) was “Additivity” and the “Summary of Observations (synergy by curve shift and isobologram analyses)” value (Ku812 [2]; combination partner Ponatinib) was “Additivity”. The “Excess over Bliss score sum” value (BaF3-BCR-ABL-T315I; Compound 2 dasatinib) was 3.19, the “Highest excess over Bliss score” value (BaF3-BCR-ABL-T315I; Compound 2 dasatinib) was 0.27 and the “Excess over Bliss score sum” value (BaF3-BCR-ABL-T315I; Compound 2 flumatinib) was 0.81. For the same molecule, the “Highest excess over Bliss score” value (BaF3-BCR-ABL-T315I; Compound 2 flumatinib) was 0.15, the “Excess over Bliss score sum” value (BaF3-BCR-ABL-T315I; Compound 2 imatinib) was 1.29 and the “Highest excess over Bliss score” value (BaF3-BCR-ABL-T315I; Compound 2 imatinib) was 0.15. For the same molecule, the “Excess over Bliss score sum” value (BaF3-BCR-ABL-T315I; Compound 2 nilotinib) was 0.36, the “Highest excess over Bliss score” value (BaF3-BCR-ABL-T315I; Compound 2 nilotinib) was 0.05 and the “Excess over Bliss score sum” value (BaF3-BCR-ABL-T315I; Compound 2 ponatinib) was 0.83. For the same molecule, the “Highest excess over Bliss score” value (BaF3-BCR-ABL-T315I; Compound 2 ponatinib) was 0.14, the “Conclusion (synergy by curve shift and isobologram analyses)” value (BaF3BCR-ABL-T315I; Reference dasatinib) was “synergy” and the “Conclusion (synergy by curve shift and isobologram analyses)” value (BaF3BCR-ABL-T315I; Reference flumatinib) was “no synergy”. The “Conclusion (synergy by curve shift and isobologram analyses)” value (BaF3BCR-ABL-T315I; Reference nilotinib) was “no synergy”.

For `C[C@H](CO)n1c(C(F)F)nc2cc(C(=O)Nc3ccc(OC(F)(F)Cl)cc3)cc(-c3cncnc3)c21` [Compound A, (R)—N-(4-(chlorodifluoromethoxy)phenyl)-2-(difluoromethyl)-1-(1-hydroxypropan-2-yl)-7-(pyrimidin-5-yl)-1H-benzo[d]imidazole-5-carboxamide], the “Interaction in in vitro combination studies” value (K562 [1]; with multiple TKIs) was “works synergistically”, the “Interaction in in vitro combination studies” value (Ku812 [2]; with multiple TKIs) was “at least additively” and the “Strongest BLISS score” value (K562 [3]; combination partner Dasatinib) was 0.16. For the same molecule, the “Summary of Observations (BLISS synergy)” value (K562 [3]; combination partner Dasatinib) was “BLISS synergy”, the “Strongest BLISS score” value (K562 [3]; combination partner Imatinib) was 0.12 and the “Summary of Observations (BLISS synergy)” value (K562 [3]; combination partner Imatinib) was “BLISS synergy”. For the same molecule, the “Strongest BLISS score” value (K562 [3]; combination partner Ponatinib) was 0.17, the “Summary of Observations (BLISS synergy)” value (K562 [3]; combination partner Ponatinib) was “BLISS synergy” and the “Strongest BLISS score” value (Ku812 [4]; combination partner Dasatinib) was 0.08. For the same molecule, the “Summary of Observations (BLISS synergy)” value (Ku812 [4]; combination partner Dasatinib) was “Weak synergy observed”, the “Strongest BLISS score” value (Ku812 [4]; combination partner Imatinib) was 0.05 and the “Summary of Observations (BLISS synergy)” value (Ku812 [4]; combination partner Imatinib) was “Weak synergy observed”. For the same molecule, the “Strongest BLISS score” value (Ku812 [4]; combination partner Ponatinib) was 0.07, the “Summary of Observations (BLISS synergy)” value (Ku812 [4]; combination partner Ponatinib) was “Weak synergy observed” and the “Inhibition of any kinase in in vitro kinase panel” value (kinase panel) was ≤ 50%.
